Laboratory results from PubChem BioAssay AID1918999 (Molecular Pharmacology Branch, DTP, NCI, 2023).
Blank lines part the entries; values can stand above or below the molecule they belong to.

System: 556581-035-R-J1-PDC complex spheroid growth
Experiment: Anticancer human tumor 556581-035-R-J1-PDC patient-derived ovarian carcinoma cell line growth inhibition [AhR]
Conditions: for IC50: curve of first compound; for viability, T/C: stronger effect = lower value
Outline: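 Spheroids combined tumor cells with HUVEC endothelial cells and human MSCs as stroma. AhR antagonists were paired with standard or investigational drugs, each dosed in half-log steps down from near clinical Cmax, or from 10 microM where Cmax was unknown.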

[1] = second compound 0.1 µM, first compound 0.000949 µM
[2] = second compound 0.1 µM, first compound 0.003 µM
[3] = second compound 0.1 µM, first compound 0.00949 µM
[4] = second compound 0.1 µM, first compound 0.03 µM
[5] = second compound 0.1 µM, first compound 0.0949 µM
[6] = second compound 0.1 µM, first compound 0.3 µM
[7] = second compound 0.316 µM, first compound 0.000949 µM
[8] = second compound 0.316 µM, first compound 0.003 µM
[9] = second compound 0.316 µM, first compound 0.00949 µM
[10] = second compound 0.316 µM, first compound 0.03 µM
[11] = second compound 0.316 µM, first compound 0.0949 µM
[12] = second compound 0.316 µM, first compound 0.3 µM
[13] = second compound 1 µM, first compound 0.000949 µM
[14] = second compound 1 µM, first compound 0.003 µM
[15] = second compound 1 µM, first compound 0.00949 µM
[16] = second compound 1 µM, first compound 0.03 µM
[17] = second compound 1 µM, first compound 0.0949 µM
[18] = second compound 1 µM, first compound 0.3 µM
[19] = second compound 3.16 µM, first compound 0.000949 µM
[20] = second compound 3.16 µM, first compound 0.003 µM
[21] = second compound 3.16 µM, first compound 0.00949 µM
[22] = second compound 3.16 µM, first compound 0.03 µM
[23] = second compound 3.16 µM, first compound 0.0949 µM
[24] = second compound 3.16 µM, first compound 0.3 µM
[25] = second compound 10 µM, first compound 0.000949 µM
[26] = second compound 10 µM, first compound 0.003 µM
[27] = second compound 10 µM, first compound 0.00949 µM
[28] = second compound 10 µM, first compound 0.03 µM
[29] = second compound 10 µM, first compound 0.0949 µM
[30] = second compound 10 µM, first compound 0.3 µM
[31] = second compound 0.1 µM, first compound 0.0316 µM
[32] = second compound 0.1 µM, first compound 0.1 µM
[33] = second compound 0.1 µM, first compound 0.316 µM
[34] = second compound 0.1 µM, first compound 1 µM
[35] = second compound 0.1 µM, first compound 3.16 µM
[36] = second compound 0.1 µM, first compound 10 µM
[37] = second compound 0.316 µM, first compound 0.0316 µM
[38] = second compound 0.316 µM, first compound 0.1 µM
[39] = second compound 0.316 µM, first compound 0.316 µM
[40] = second compound 0.316 µM, first compound 1 µM
[41] = second compound 0.316 µM, first compound 3.16 µM
[42] = second compound 0.316 µM, first compound 10 µM
[43] = second compound 1 µM, first compound 0.0316 µM
[44] = second compound 1 µM, first compound 0.1 µM
[45] = second compound 1 µM, first compound 0.316 µM
[46] = second compound 1 µM, first compound 1 µM
[47] = second compound 1 µM, first compound 3.16 µM
[48] = second compound 1 µM, first compound 10 µM
[49] = second compound 3.16 µM, first compound 0.0316 µM
[50] = second compound 3.16 µM, first compound 0.1 µM
[51] = second compound 3.16 µM, first compound 0.316 µM
[52] = second compound 3.16 µM, first compound 1 µM
[53] = second compound 3.16 µM, first compound 3.16 µM
[54] = second compound 3.16 µM, first compound 10 µM
[55] = second compound 10 µM, first compound 0.0316 µM
[56] = second compound 10 µM, first compound 0.1 µM
[57] = second compound 10 µM, first compound 0.316 µM
[58] = second compound 10 µM, first compound 1 µM
[59] = second compound 10 µM, first compound 3.16 µM
[60] = second compound 10 µM, first compound 10 µM
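Wherever viability, T/C is given: compound exposure lasted 7 days; 100% = DMSO vehicle control growth.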

IC50 (second compound 0.1 µM): 0.00578 µM
IC50 (second compound 0.316 µM): 0.00573 µM
IC50 (second compound 1 µM): 0.0059 µM
IC50 (second compound 3.16 µM): 0.00564 µM
IC50 (second compound 10 µM): 0.00597 µM
SMILES: CC(C)CC(NC(=O)C(Cc1ccccc1)NC(=O)c1cnccn1)B(O)O (stereo not given) + Cc1ccccc1N=Nc1ccc(NC(=O)c2ccnn2C)c(C)c1
viability, T/C [1]: 91.6%
viability, T/C [2]: 117%
viability, T/C [3]: 8.91%
viability, T/C [4]: 0.21%
viability, T/C [5]: 0.17%
viability, T/C [6]: 0.27%
viability, T/C [7]: 97.2%
viability, T/C [8]: 105%
viability, T/C [9]: 10.2%
viability, T/C [10]: 0.34%
viability, T/C [11]: 0.22%
viability, T/C [12]: 0.22%
viability, T/C [13]: 90.2%
viability, T/C [14]: 115%
viability, T/C [15]: 13.2%
viability, T/C [16]: 0.19%
viability, T/C [17]: 0.16%
viability, T/C [18]: 0.26%
viability, T/C [19]: 88.2%
viability, T/C [20]: 100%
viability, T/C [21]: 13.6%
viability, T/C [22]: 0.16%
viability, T/C [23]: 0.17%
viability, T/C [24]: 0.22%
viability, T/C [25]: 82.3%
viability, T/C [26]: 89.1%
viability, T/C [27]: 25.9%
viability, T/C [28]: 0.35%
viability, T/C [29]: 0.31%
viability, T/C [30]: 0.28%

IC50 (second compound 0.1 µM): 2.12 µM
IC50 (second compound 0.316 µM): 2.31 µM
IC50 (second compound 1 µM): 2.79 µM
IC50 (second compound 3.16 µM): 2.64 µM
IC50 (second compound 10 µM): 3.11 µM
SMILES: Nc1ccccc1NC(=O)c1ccc(CNC(=O)OCc2cccnc2)cc1 + Cc1ccccc1N=Nc1ccc(NC(=O)c2ccnn2C)c(C)c1
viability, T/C [31]: 101%
viability, T/C [32]: 112%
viability, T/C [33]: 87.2%
viability, T/C [34]: 69.3%
viability, T/C [35]: 40.8%
viability, T/C [36]: 18.9%
viability, T/C [37]: 110%
viability, T/C [38]: 102%
viability, T/C [39]: 93.7%
viability, T/C [40]: 72.2%
viability, T/C [41]: 41.1%
viability, T/C [42]: 19.4%
viability, T/C [43]: 110%
viability, T/C [44]: 106%
viability, T/C [45]: 92.7%
viability, T/C [46]: 70%
viability, T/C [47]: 49%
viability, T/C [48]: 21.5%
viability, T/C [49]: 113%
viability, T/C [50]: 104%
viability, T/C [51]: 88.3%
viability, T/C [52]: 68.5%
viability, T/C [53]: 47.3%
viability, T/C [54]: 20.6%
viability, T/C [55]: 99.5%
viability, T/C [56]: 95.9%
viability, T/C [57]: 92.9%
viability, T/C [58]: 68.2%
viability, T/C [59]: 52.2%
viability, T/C [60]: 32.8%

IC50 (second compound 0.1 µM): 1.2 µM
IC50 (second compound 0.316 µM): 1.34 µM
IC50 (second compound 1 µM): 1.28 µM
IC50 (second compound 3.16 µM): 1.13 µM
IC50 (second compound 10 µM): 1.54 µM
SMILES: O=C(C=Cc1cccc(S(=O)(=O)Nc2ccccc2)c1)NO + Cc1ccccc1N=Nc1ccc(NC(=O)c2ccnn2C)c(C)c1
viability, T/C [31]: 99.8%
viability, T/C [32]: 113%
viability, T/C [33]: 87%
viability, T/C [34]: 50.8%
viability, T/C [35]: 28.4%
viability, T/C [36]: 4.1%
viability, T/C [37]: 106%
viability, T/C [38]: 92.7%
viability, T/C [39]: 91.9%
viability, T/C [40]: 57.1%
viability, T/C [41]: 24.9%
viability, T/C [42]: 4.53%
viability, T/C [43]: 93.9%
viability, T/C [44]: 107%
viability, T/C [45]: 91.7%
viability, T/C [46]: 53.2%
viability, T/C [47]: 27.7%
viability, T/C [48]: 6.45%
viability, T/C [49]: 96.4%
viability, T/C [50]: 90.5%
viability, T/C [51]: 77.7%
viability, T/C [52]: 51.4%
viability, T/C [53]: 27.1%
viability, T/C [54]: 5.72%
viability, T/C [55]: 86.2%
viability, T/C [56]: 83.2%
viability, T/C [57]: 79.8%
viability, T/C [58]: 61%
viability, T/C [59]: 30.9%
viability, T/C [60]: 7.96%

Further lines, the molecule ahead of its results:

SMILES: CCc1c2c(nc3ccc(O)cc13)-c1cc3c(c(=O)n1C2)COC(=O)[C@]3(O)CC + Cc1ccccc1N=Nc1ccc(NC(=O)c2ccnn2C)c(C)c1
IC50 (second compound 0.1 µM): 0.0212 µM
IC50 (second compound 0.316 µM): 0.017 µM
IC50 (second compound 1 µM): 0.0188 µM
IC50 (second compound 3.16 µM): 0.0205 µM
IC50 (second compound 10 µM): 0.0221 µM
viability, T/C [1]: 97.1%
viability, T/C [2]: 87.2%
viability, T/C [3]: 64.8%
viability, T/C [4]: 42%
viability, T/C [5]: 27.1%
viability, T/C [6]: 12.8%
viability, T/C [7]: 98.1%
viability, T/C [8]: 86.4%
viability, T/C [9]: 64.3%
viability, T/C [10]: 36.5%
viability, T/C [11]: 18.3%
viability, T/C [12]: 12.7%
viability, T/C [13]: 98.8%
viability, T/C [14]: 82.5%
viability, T/C [15]: 64.1%
viability, T/C [16]: 41.5%
viability, T/C [17]: 23.7%
viability, T/C [18]: 16.7%
viability, T/C [19]: 84%
viability, T/C [20]: 86.5%
viability, T/C [21]: 74.6%
viability, T/C [22]: 37.2%
viability, T/C [23]: 20.7%
viability, T/C [24]: 14.1%
viability, T/C [25]: 94.5%
viability, T/C [26]: 88.3%
viability, T/C [27]: 72.9%
viability, T/C [28]: 40.8%
viability, T/C [29]: 23.2%
viability, T/C [30]: 14.2%

SMILES: Nc1ccn(C2OC(CO)C(O)C2(F)F)c(=O)n1 (stereo not given) + Cc1ccccc1N=Nc1ccc(NC(=O)c2ccnn2C)c(C)c1
IC50 (second compound 0.1 µM): < 0.0316 µM
IC50 (second compound 0.316 µM): < 0.0316 µM
IC50 (second compound 1 µM): < 0.0316 µM
IC50 (second compound 3.16 µM): < 0.0316 µM
IC50 (second compound 10 µM): < 0.0316 µM
viability, T/C [31]: 35.5%
viability, T/C [32]: 41.6%
viability, T/C [33]: 38.4%
viability, T/C [34]: 34.7%
viability, T/C [35]: 35.5%
viability, T/C [36]: 34%
viability, T/C [37]: 31.9%
viability, T/C [38]: 37.4%
viability, T/C [39]: 38.4%
viability, T/C [40]: 37.6%
viability, T/C [41]: 35.4%
viability, T/C [42]: 32.4%
viability, T/C [43]: 38.3%
viability, T/C [44]: 37.2%
viability, T/C [45]: 41.1%
viability, T/C [46]: 36.2%
viability, T/C [47]: 33.9%
viability, T/C [48]: 30%
viability, T/C [49]: 36.1%
viability, T/C [50]: 36.9%
viability, T/C [51]: 37.6%
viability, T/C [52]: 37.7%
viability, T/C [53]: 37.1%
viability, T/C [54]: 29%
viability, T/C [55]: 38%
viability, T/C [56]: 42.6%
viability, T/C [57]: 40.9%
viability, T/C [58]: 39.7%
viability, T/C [59]: 37.7%
viability, T/C [60]: 35.6%

SMILES: O=C(c1cc(Cc2n[nH]c(=O)c3ccccc23)ccc1F)N1CCN(C(=O)C2CC2)CC1 + Cc1ccccc1N=Nc1ccc(NC(=O)c2ccnn2C)c(C)c1
IC50 (second compound 0.1 µM): > 10 µM
IC50 (second compound 0.316 µM): > 10 µM
IC50 (second compound 1 µM): > 10 µM
IC50 (second compound 3.16 µM): > 10 µM
IC50 (second compound 10 µM): > 10 µM
viability, T/C [31]: 100%
viability, T/C [32]: 92.5%
viability, T/C [33]: 89.2%
viability, T/C [34]: 95%
viability, T/C [35]: 78.3%
viability, T/C [36]: 76.1%
viability, T/C [37]: 103%
viability, T/C [38]: 88.2%
viability, T/C [39]: 87.8%
viability, T/C [40]: 97.3%
viability, T/C [41]: 87.8%
viability, T/C [42]: 72.3%
viability, T/C [43]: 92.7%
viability, T/C [44]: 96.8%
viability, T/C [45]: 93.3%
viability, T/C [46]: 99.5%
viability, T/C [47]: 93.3%
viability, T/C [48]: 76.6%
viability, T/C [49]: 89%
viability, T/C [50]: 93.7%
viability, T/C [51]: 84.2%
viability, T/C [52]: 80.9%
viability, T/C [53]: 82.4%
viability, T/C [54]: 77.5%
viability, T/C [55]: 78.2%
viability, T/C [56]: 82.3%
viability, T/C [57]: 82.5%
viability, T/C [58]: 82.6%
viability, T/C [59]: 82.4%
viability, T/C [60]: 74.8%
